Several values for one entry are separate records, joined by “and”; a condition that tells them apart may be missing. Identical values can stand only once.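 Test compounds were applied to cells in 96-well plates for 48 hours at 5 doses. Abbreviation: GI50, concentration required for 50% inhibition of growth. At the TGI there is no net growth.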

Some test systems named below: SN12C renal; T-47D breast; HCT-116 colon; NCI-H522 lung; SNB-19 CNS; NCI-H226 lung; U251 CNS; LOX IMVI melanoma; M14 melanoma; HOP-92 NSCLC.
Assay in all cases: growth of human tumour cells (NCI), 48 h

Regarding `COc1ccc(C(=O)COC(=O)[C@H](C[Se][Se]C[C@H](NC(=O)c2ccc(Br)cc2F)C(=O)OCC(=O)c2ccc(OC)cc2)NC(=O)c2ccc(Br)cc2F)cc1`, the GI50 is 1.04 µM with SN12C renal; 1.73 µM in the experiment on T-47D breast; 0.949 µM in the experiment with HCT-116 colon; 0.66 µM in the experiment on NCI-H522 lung; 0.427 µM in the experiment on SNB-19 CNS; 0.581 µM in the experiment on NCI-H226 lung. For the same compound, the GI50 in the experiment on U251 CNS is 0.312 µM; in the experiment on LOX IMVI melanoma it was 0.914 µM; in the experiment with M14 melanoma, 0.588 µM; in the experiment with HOP-92 NSCLC, 2.04 µM. The TGI came out at 2.49 µM in the experiment on SN12C renal; 6.03 µM with T-47D breast; 2.78 µM in the experiment with HCT-116 colon; 2.02 µM with NCI-H522 lung; 4.9 µM with SNB-19 CNS; 2.07 µM with NCI-H226 lung. The TGI is 1.07 µM in the experiment on U251 CNS, 2.32 µM with LOX IMVI melanoma, 1.85 µM in the experiment on M14 melanoma and 5.87 µM with HOP-92 NSCLC.
Turning to `O=[N+]([O-])c1ccccc1N/N=C\c1c[nH]c2ccccc12`, the GI50 is 10.2 µM with SN12C renal; 3.52 µM with T-47D breast; 13.7 µM in the experiment with HCT-116 colon; 11.6 µM in the experiment with NCI-H522 lung; 24.9 µM in the experiment on SNB-19 CNS; 12.6 µM in the experiment on NCI-H226 lung. In addition, the GI50 is 10.6 µM with U251 CNS, 8.81 µM with LOX IMVI melanoma, 34.7 µM in the experiment on M14 melanoma and 4.45 µM in the experiment with HOP-92 NSCLC. Further, the TGI with SN12C renal, in the experiment with T-47D breast, with HCT-116 colon, in the experiment with NCI-H522 lung, in the experiment with SNB-19 CNS and with NCI-H226 lung was over 100 µM throughout. Moreover, the TGI with U251 CNS is 24.2 µM; in the experiment on LOX IMVI melanoma, over 47.6 µM; in the experiment on M14 melanoma, over 100 µM; in the experiment on HOP-92 NSCLC, 49.2 µM.
In the case of `CC1=CC(=C(c2ccc(N)cc2)c2ccc(N)cc2)C=CC1=N`, the GI50 in the experiment with SN12C renal was 0.422 µM and 0.456 µM; in the experiment on T-47D breast, 0.27 µM and 1.31 µM; with HCT-116 colon, 0.457 µM and 2.8 µM; with NCI-H522 lung, 1.8 µM and 2.26 µM; in the experiment on SNB-19 CNS it was 0.494 µM; in the experiment with NCI-H226 lung, 2.16 µM and 7.35 µM. Further, the GI50 is 0.316 µM and 0.455 µM and 0.538 µM in the experiment with U251 CNS; 1.38 µM and 3.71 µM with LOX IMVI melanoma; 0.867 µM and 3.79 µM in the experiment on M14 melanoma; 0.949 µM and 3.25 µM in the experiment with HOP-92 NSCLC. For the same compound, the TGI in the experiment on SN12C renal is 13.5 µM and 10 µM and 69.3 µM; with T-47D breast it was 2.73 µM and 11.8 µM and 8.81 µM; in the experiment with HCT-116 colon, 4.15 µM and 25.7 µM and 9.14 µM; with NCI-H522 lung, 17.8 µM and 7.03 µM; with SNB-19 CNS it was 14.4 µM and 20.1 µM and 28.1 µM; with NCI-H226 lung it was 16.5 µM and 19.6 µM and 46.6 µM. The TGI with U251 CNS was 5.38 µM and > 36 µM and 13 µM; with LOX IMVI melanoma, 5.5 µM and 6.81 µM and 15 µM; with M14 melanoma, 5.25 µM and 17.7 µM and 15.3 µM.
As for `C/C(=C\CCc1ccoc1)CC/C=C(\C)CCCN1CCOCC1`, the GI50 is 6.83 µM in the experiment on SN12C renal; 3.62 µM with T-47D breast; 2.27 µM in the experiment with HCT-116 colon; 10.9 µM in the experiment with NCI-H522 lung; 9.27 µM with SNB-19 CNS; 10.5 µM in the experiment on NCI-H226 lung. The GI50 is 6.29 µM in the experiment on U251 CNS, 6.91 µM in the experiment on LOX IMVI melanoma, 1.65 µM in the experiment on M14 melanoma and 1.43 µM with HOP-92 NSCLC. The TGI in the experiment on SN12C renal was 21 µM; with T-47D breast, 13.1 µM; in the experiment on HCT-116 colon it was 10.2 µM; in the experiment on NCI-H522 lung, 26.8 µM; in the experiment with SNB-19 CNS, 23.6 µM; in the experiment with NCI-H226 lung it was 30.7 µM. The TGI was 19.1 µM with U251 CNS, 20.7 µM in the experiment on LOX IMVI melanoma, 3.42 µM in the experiment on M14 melanoma and 5.49 µM with HOP-92 NSCLC.
As to `CC1(C)CCC2=C(O1)c1ccccc1C(=O)C2=O`, the GI50 is 0.855 µM in the experiment with SN12C renal; 1.49 µM with T-47D breast; 0.511 µM in the experiment with HCT-116 colon; 1.89 µM in the experiment on NCI-H522 lung; 1.6 µM and 1.71 µM with SNB-19 CNS; 1.84 µM in the experiment with NCI-H226 lung. For the same compound, the GI50 in the experiment on U251 CNS is 1.49 µM; with LOX IMVI melanoma it was 0.33 µM and 0.309 µM; in the experiment with M14 melanoma, 1.69 µM; in the experiment with HOP-92 NSCLC, 1.72 µM. The TGI is 2.2 µM and 1.04 µM with SN12C renal; 4.4 µM and 1.87 µM with T-47D breast; 2.01 µM and 0.738 µM with HCT-116 colon; 4.79 µM and 1.52 µM with NCI-H522 lung; 3.08 µM and 3.11 µM with SNB-19 CNS; 3.77 µM and 2.89 µM in the experiment with NCI-H226 lung. In addition, the TGI in the experiment with U251 CNS is 2.95 µM and 1.13 µM; with LOX IMVI melanoma, 1.31 µM and 0.934 µM; with M14 melanoma, 3.31 µM and 0.801 µM; with HOP-92 NSCLC it was 3.33 µM and 10.4 µM.
As for `CS(=O)(=O)Nc1ccc(-c2cc(-c3ccccc3)cc(C(N)=O)c2N)cc1`, the GI50 in the experiment with SN12C renal was over 25 µM; in the experiment with T-47D breast, over 21.5 µM; in the experiment on HCT-116 colon, over 25 µM; with NCI-H522 lung, 15.3 µM; in the experiment with SNB-19 CNS it was over 25 µM; in the experiment on NCI-H226 lung it was over 25 µM. For the same compound, the GI50 in the experiment with U251 CNS is over 25 µM; in the experiment with LOX IMVI melanoma, over 25 µM; in the experiment on M14 melanoma it was over 25 µM; with HOP-92 NSCLC, 8.9 µM. Moreover, the TGI in the experiment on SN12C renal, in the experiment with T-47D breast, in the experiment on HCT-116 colon, in the experiment with NCI-H522 lung, in the experiment on SNB-19 CNS and in the experiment on NCI-H226 lung was over 25 µM throughout. Further, the TGI in the experiment with U251 CNS, in the experiment on LOX IMVI melanoma, in the experiment on M14 melanoma and with HOP-92 NSCLC was over 25 µM throughout.
As for `Clc1ccc2c(c1)N(c1ncnc3ccc(-c4cnc5[nH]ccc5c4)cc13)CC2`, the GI50 in the experiment on SN12C renal was 1.95 µM; in the experiment on T-47D breast, 0.501 µM; in the experiment on HCT-116 colon, 1.36 µM; in the experiment with NCI-H522 lung, 0.819 µM; in the experiment with SNB-19 CNS, 4.48 µM; with NCI-H226 lung, 2.76 µM. In addition, the GI50 in the experiment with U251 CNS was 2.51 µM; in the experiment with LOX IMVI melanoma it was 0.734 µM; in the experiment with M14 melanoma, 0.992 µM; with HOP-92 NSCLC it was 2.61 µM. Further, the TGI amounted to 20 µM with SN12C renal; 6.48 µM in the experiment on T-47D breast; 14.7 µM in the experiment on HCT-116 colon; 12.5 µM with NCI-H522 lung; 35.5 µM in the experiment on SNB-19 CNS; 22 µM with NCI-H226 lung. The TGI with U251 CNS is 10.9 µM; in the experiment on LOX IMVI melanoma it was 10.3 µM; in the experiment with M14 melanoma, 11.9 µM; in the experiment with HOP-92 NSCLC, 31.5 µM.
